Several values for one entry are separate records, joined by “and”; a condition that tells them apart may be missing. Equal entries are not always repeated.
Legend:
[1] = tested on: GIST-T1 cells; test: Growth over time assay in GIST-T1; type: cell-based, human; details: all doses tested; day 21 cell count
From the text: Cell Culture and Virus Production. All cell lines tested negative for mycoplasma infection on routine surveillance (MilliporeSigma Cat #MP0025-1KT). Human embryonic kidney (HEK) 293 FT (Thermo Fisher Scientific Cat #R70007, RRID: CVCL_6911) and the GIST cell lines GIST-T1 (Cosmo Bio Cat #PMC-GIST01-COS, RRID: CVCL_4976; KIT mutation in exon 11 Δ560-578), GIST430 (RRID: CVCL_7040; KIT mutation in exon 11 Δ560-576), GIST48B (RRID: CVCL_M441: KIT-independent), and GIST882 (RRID: CVCL_7044: KIT mutation in exon 13 K642E) were cultured in Dulbecco's modified Eagle's medium containing 10% FBS, 2 mM L-glutamine, […], and […]. KIT rescue cell lines, which are independent of the KIT enhancer, were generated as previously described (Hemming et al., Cancer Research 79:994-1009 (2019)). Non-commercial cell lines were obtained from the laboratory of Jonathan Fletcher between 2014 and 2016. KIT exons were sequenced to confirm the expected coding mutations and cell identity of GIST cell lines, and cells were thawed from original or derived stocks and used in the described experiments within approximately 3 months. Transfections were performed with X-tremeGene (Roche, Cat #6365809001). Lentiviral production was performed as previously described (Hemming et al., PLOS Biol. 6: e2571-15 (2008)). […]

[2] = tested on: GIST-T1 cells; test: RNA-seq and GSEA of drug-treated GIST-T1 cells; type: cell-based, human
Description: (§1) RNA-seq. Total RNA was isolated using a RNeasy Plus Kit (Qiagen Cat #74136), and concentration measured by Nanodrop (Thermo Fisher Scientific) and quality by TapeStation 4200 (Agilent). Library preparation was performed using the NEBNext Ultra II DNA Library Prep Kit (New England Biolabs Cat #E7645S). Paired-end 150 bp sequencing was performed on a NovaSeq 6000 (Illumina). RNA-seq data were aligned to hg19 using STAR (Dobin et al., Bioinformatics 29:15-21 (2012)) with expression quantification using Cufflinks (Trapnell et al., Nat. Biotechnol. 28:511-5 (2010)) to generate gene expression values in fragments per kilobase of transcript per million mapped reads (FPKM) units. Gene set enrichment analysis (GSEA, RRID: SCR_003199) (Subramanian et al., Proc. Natl. Acad. Sci. USA 102:15545-50 (2005)) was performed using Hallmark gene lists in the Molecular Signatures Database.

[3] = tested on: GIST cells; test: Apoptosis and cell death (Annexin V / 7-AAD, Guava Nexin); type: cell-based, human; details: 72-hour treatment, imatinib 0.5 μM
Description: Cell cycle and apoptosis. […] Cells were trypsinized, washed in PBS and fixed in 70% ethanol. Propidium iodide at 25 μg/mL (Life Technologies Cat #P1304MP) and RNAse A at 0.2 mg/mL (Thermo Fischer Scientific Cat #EN0531) were used to stain nuclear DNA. Analysis was performed on a Guava easyCyte Flow Cytometer (Luminex Corporation), and single cells were assessed for nuclear content using Guava InCyte software. […] Non-apoptotic cells stain negative for Annexin V and 7-AAD, early apoptotic cells stain positive for Annexin V but negative for 7-AAD and late apoptotic and dead cells stain positive for both Annexin V and 7-AAD. Staining was assayed on a Guava easyCyte Flow Cytometer and data analyzed using Guava InCyte software.

[4] = tested on: GIST cells; test: Cell cycle analysis (propidium iodide, flow cytometry); type: cell-based, human; details: 72 hours imatinib
Description: Cell cycle and apoptosis. […] Cells were trypsinized, washed in PBS and fixed in 70% ethanol. Propidium iodide at 25 μg/mL (Life Technologies Cat #P1304MP) and RNAse A at 0.2 mg/mL (Thermo Fischer Scientific Cat #EN0531) were used to stain nuclear DNA. Analysis was performed on a Guava easyCyte Flow Cytometer (Luminex Corporation), and single cells were assessed for nuclear content using Guava InCyte software. Apoptosis and cell death were measured following 72 h of drug treatment using Guava Nexin Reagent (Luminex Corporation Cat #4500-0450) per manufacturer's recommendations. Non-apoptotic cells stain negative for Annexin V and 7-AAD, early apoptotic cells stain positive for Annexin V but negative for 7-AAD and late apoptotic and dead cells stain positive for both Annexin V and 7-AAD. Staining was assayed on a Guava easyCyte Flow Cytometer and data analyzed using Guava InCyte software.

[5] = tested on: GIST-T1 xenografts; test: RNA-seq on GIST-T1 xenografts; type: in vivo, mice; details: 5 and 10 days of treatment
Description: as §1, with “Database. Xenograft Models. […] VTP-50469 (0.1% in chow) or combination treatments.” for “Database.”

[6] = tested on: GIST-T1 cell line xenografts; test: GIST-T1 cell line xenograft, tumor volume; type: in vivo, mice; details: for tumor volume relative to baseline: WM-1119 50 mg/kg gavage 3 times daily, one value per animal 1-6
From the text: Xenograft Models. The PG27 patient derived xenograft was obtained from a patient undergoing clinically indicated surgery and following written informed consent to a Dana-Farber Cancer Institute IRB-approved research protocol. Cryopreserved tumor or the GIST-T1 cell line mixed 1:1 with matrigel were implanted subcutaneously into 6-week-old female nude mice (NU/NU; Charles River Laboratories). GIST-T1 tested negative for mycoplasma and rodent pathogens (Charles River Laboratories). For in vivo assessment of CRISPR/Cas9)-modified cell line growth. GIST-T1/Cas9 cells were treated with the indicated sgRNAs and selected with puromycin in vitro for 14 days prior to bilateral flank implantation. For drug treatment studies, singly engrafted mice were enrolled into treatment groups when tumors reached approximately 100-200 mm^3 in size, as measured by calipers and determined by the tumor volume equation: […]. […] WM-1119 (50 mg/kg gavage 3 times daily. 7 days per week). VTP-50469 (0.1% in chow) or combination treatments. […] Tumors were dissected and fixed in 10% formalin for corollary studies including H&E staining and immunohistochemistry of sectioned tumors. 4 μm sections were cut from fixed and embedded tumors and stained with Ki-67 (1:400, Cell Signaling Technology Cat #9027) and cleaved caspase-3 (1:250, Cell Signaling Technology Cat #9579). Reactions were developed using DAB (Cell Signaling Technology Cat #8059) or NovaRed (Vector Laboratories Cat #SK-4800) substrate kits per manufacturer recommendations. All procedures were conducted under protocols approved by the Institutional Animal Care and Use Committee at Dana-Farber Cancer Institute.

`CC(C)N(C[C@H]1O[C@@H](n2cnc3c(N)ncnc32)[C@H](O)[C@@H]1O)[C@H]1C[C@@H](CCc2nc3cc(C(C)(C)C)ccc3[nH]2)C1` [EPZ-5676] was tested, and the “cellular proliferation of GIST-T1 compared to DMSO control or GIST48B” value [1] was “significantly reduced cellular proliferation”, the “HAND1-regulated transcriptional programs (GSEA)” value ([2]; GIST-T1, 5 days) was “significant disruption” and the “correlation of transcriptional changes with those of VTP-50469” value ([2]; GIST-T1, 5 days, RNA-seq) was “highly correlated”.
In the case of `Cc1ccc(NC(=O)c2ccc(CN3CCN(C)CC3)cc2)cc1Nc1nccc(-c2cccnc2)n1` [imatinib], the “apoptosis and cell death versus DMSO” value [3] is reported as “significant increase in early and late-phase apoptosis and cell death”, the cell cycle effect [4] is reported as “G0/G1 cell cycle arrest” and the “KIT signaling-dependent transcripts TMEM100 and SPRY2 in xenografts” value [5] is reported as “preferentially reduced”. The “expression of genes regulated by HAND1 in xenografts” value [5] was “decrease in the expression of genes regulated by HAND1”.
`O=C(NNS(=O)(=O)c1ccccc1F)c1cc(F)cc(-c2ccccn2)c1` [WM-1119, 2-fluoro-N′-(3-fluoro-5-(pyridin-2-yl)benzoyl)benzenesulfonohydrazide] was tested, and the “expression of GIST TFs” value ([2]; GIST-T1, 5 days) was “greatest global reduction in TF expression”, the “global gene expression change (RNA-seq) versus DMSO” value ([2]; GIST-T1 treated 1 and 5 days) was “modestly altered expression of numerous genes” and the “tumor volume relative to baseline” value ([6]; treatment day 1 (baseline)) was 100. For the same molecule, the “tumor volume relative to baseline” value ([6]; treatment day 5, 50 mg/kg) was 175 and 211 and 114 and 133 and 87 and 152, the “tumor volume relative to baseline” value ([6]; treatment day 8, 50 mg/kg) was 480 and 322 and 157 and 173 and 131 and 206 and the “tumor volume relative to baseline” value ([6]; treatment day 12, 50 mg/kg) was 518 and 368 and 287 and 160 and 145 and 260. The “tumor volume relative to baseline” value ([6]; treatment day 14, 50 mg/kg) was 527 and 429 and 327 and 181 and 163 and 328, the “tumor volume relative to baseline” value ([6]; treatment day 19, 50 mg/kg) was 876 and 501 and 511 and 180 and 268 and 277 and the “tumor volume relative to baseline” value ([6]; treatment day 22, 50 mg/kg) was 878 and 409 and 489 and 150 and 205 and 361. The “tumor volume relative to baseline” value ([6]; treatment day 27, 50 mg/kg) was 856 and 525 and 558 and 202 and 232 and 317, the “tumor volume relative to baseline” value ([6]; treatment day 29, 50 mg/kg) was 874 and 532 and 648 and 199 and 221 and 353 and the “tumor growth compared to vehicle” value ([6]; end of 28-day treatment period) was “significant reductions in tumor growth”.

Source: patent publication US20250041299A1, “THERAPEUTIC TARGETING OF GASTROINTESTINAL STROMAL TUMOR (GIST) BY DISRUPTING THE MENIN-MLL EPIGENETIC COMPLEX” (DANA-FARBER CANCER INSTITUTE, INC., priority 2021, published 2025)
